# Source: PMC11408249, “Non-invasive in vivo imaging of changes in Collagen III turnover in myocardial fibrosis” (npj Imaging, 2024)
# Molecular target: T1, COL3 (Homo sapiens, UniProt P02461)
# T1 sequence (P02461 154-1221 limits assumed): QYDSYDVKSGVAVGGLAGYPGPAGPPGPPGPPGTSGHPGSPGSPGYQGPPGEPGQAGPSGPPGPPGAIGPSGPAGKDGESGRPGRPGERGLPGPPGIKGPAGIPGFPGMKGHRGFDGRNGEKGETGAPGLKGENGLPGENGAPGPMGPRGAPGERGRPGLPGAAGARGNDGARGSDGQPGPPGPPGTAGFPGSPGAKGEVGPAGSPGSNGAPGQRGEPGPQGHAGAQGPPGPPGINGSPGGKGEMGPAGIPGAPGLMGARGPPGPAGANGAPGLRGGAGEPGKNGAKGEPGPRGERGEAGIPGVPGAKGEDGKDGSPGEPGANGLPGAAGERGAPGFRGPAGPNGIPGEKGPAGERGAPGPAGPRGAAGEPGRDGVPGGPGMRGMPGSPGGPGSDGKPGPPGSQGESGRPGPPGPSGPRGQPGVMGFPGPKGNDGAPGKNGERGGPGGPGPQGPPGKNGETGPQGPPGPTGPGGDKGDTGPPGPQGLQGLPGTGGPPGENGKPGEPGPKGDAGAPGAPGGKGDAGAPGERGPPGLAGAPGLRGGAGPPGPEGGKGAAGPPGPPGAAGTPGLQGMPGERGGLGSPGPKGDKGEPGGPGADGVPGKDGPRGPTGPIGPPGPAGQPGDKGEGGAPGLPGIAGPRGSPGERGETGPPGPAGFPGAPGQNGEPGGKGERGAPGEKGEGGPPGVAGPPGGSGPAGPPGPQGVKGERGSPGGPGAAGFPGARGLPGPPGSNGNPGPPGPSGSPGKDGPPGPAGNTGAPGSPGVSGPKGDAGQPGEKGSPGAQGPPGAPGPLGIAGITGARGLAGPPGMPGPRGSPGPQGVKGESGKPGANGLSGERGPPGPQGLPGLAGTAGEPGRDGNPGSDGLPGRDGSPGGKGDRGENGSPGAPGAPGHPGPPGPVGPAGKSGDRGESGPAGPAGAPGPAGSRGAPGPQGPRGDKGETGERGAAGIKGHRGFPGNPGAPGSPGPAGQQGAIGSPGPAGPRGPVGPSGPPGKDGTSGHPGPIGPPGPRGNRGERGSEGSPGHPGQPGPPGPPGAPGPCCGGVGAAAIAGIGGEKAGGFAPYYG
# Assay: Competition assay: Gd(III) tetrameric probe displaces Eu(III) monomeric probe from COL3
# Type: binding
# Conditions: 5 µM Eu(III) monomeric probe, Gd tetrameric probe 0.01–200 µM, 1 h room temperature
# Description: The binding interactions of the tetrameric Gd(III)-labelled probes with COL3 were studied by a competition assay, as Gd(III) is not suitable for TRF based assays. In competition assays, the binding of the Gd(III)-labelled tetrameric probe of interest to the target protein was measured by competition with the corresponding Eu(III)-labelled monomeric probe. Specifically, a row of wells was coated with collagen (COL3) and added with a constant amount of the Eu(III)-labelled probe of interest (e.g. Eu-DOTAMA-CBP1). Wells were then added and incubated with increasing concentrations of the corresponding tetrameric Gd(III)-labelled probes (e.g. [Gd-DOTAMA]4-CBP1). Displacement curves were then obtained by plotting the residual Eu(III) TRF against the concentration of the Gd(III)-labelled probe. Briefly, eight solutions were made containing a fixed concentration of Eu(III)-monomeric probe (5 µM) and increasing concentrations of the Gd-tetrameric probe (0.01–200 µM). Plates pre-coated with COL3 were simultaneously incubated with both compounds for 1 h at room temperature (triplicate wells per plate and 3 independent plates). After the incubation, the Eu(III) TRF assay protocol including the acid extraction and enhancement solution steps were used to measure the binding of the monomeric probe in the presence of the competing tetrameric probe, as previously described. […]
row,Substance,displacement of the monomeric Eu(III)-labelled counterpart from COL3 (in words)
1,"Ac-C-RDKKVAEQS [[Gd-DOTAMA]4-SccCBP1, scrambled tetrameric Gd probe (Ac-C-…), negative control]",cannot
2,"Ac-C-TEFPLRMRDWLKN [[Gd-DOTAMA]4-CBP2, tetrameric probe: tri-lysine scaffold bearing four Gd-DOTAMA units conjugated at the N-terminus of CBP2]",can be observed only at very high concentrations
